The test system of the first experiment is benzodiazepine binding site.
Test: not given
The note with it: cited from earlier work.
On to `CN1CCc2cc3c(cc2[C@@H]1[C@H]1OC(=O)c2c1ccc1c2OCO1)OCO3` [(-) bicuculline], for which the “block of GABA-agonist enhancement of benzodiazepine binding” value is given as “much less active”.
With `CN1CCc2cc3c(cc2[C@H]1[C@@H]1OC(=O)c2c1ccc1c2OCO1)OCO3` [(+) bicuculline], the “block of GABA-agonist enhancement of benzodiazepine binding” value is “blocked”.

For the next experiment, the target named is GABAa receptor. Put plainly: GABAa receptor binding assay: inhibition of 3H-RO15-1788 (3H-Flumazenil) binding to rat cortical tissue. The note with it: 0.5 nM 3H-RO15-1788, 30 min at 4° C., nonspecific binding with 1.0 μM diazepam. The procedure: The pharmaceutical utility of compounds of this invention are indicated by the following assay for GABAa receptor activity.
Assays are carried out as described in Thomas and Tallman (J. Bio. Chem. 156: 9838-9842, J. Neurosci. 3:433-440, 1983). Rat cortical tissue is dissected and homogenized in 25 volumes (w/v) of 0.05M Tris HCl buffer (pH 7.4 at 4° C.). The tissue homogenate is centrifuged in the cold (4°) at 20,000×g for 20'. The supernatant is decanted and the pellet is rehomogenized in the same volume of buffer and again centrifuged at 20,000×g. The supernatant is decanted and the pellet is frozen at -20° C. overnight. The pellet is then thawed and rehomogenized in 25 volume (original wt/vol) of buffer and the procedure is carried out twice. The pellet is finally resuspended in 50 volumes (w/vol of 0.05M Tris HCl buffer (pH 7.4 at […]).
Incubations contain 100 μl of tissue homogenate, 100 μl of radioligand 0.5 nM (^3 H-RO15-1788 [^3 H-Flumazenil] specific activity 80 Ci/mmol), drug or blocker and buffer to a total volume of 500 μl. Incubations are carried for 30 min at 4° C. then are rapidly filtered through GFB filters to separate free and bound ligand. Filters are washed twice with fresh 0.05M Tris HCl buffer (pH 7.4 at 4° C.) and counted in a liquid scintillation counter. 1.0 μM diazepam is added to some tubes to determine nonspecific binding. Data are collected in triplicate determinations, averaged and % inhibition of total specific binding is calculated. Total Specific Binding=Total-Nonspecific. In some cases, the amounts of unlabeled drugs is varied and total displacement curves of binding are carried out. Data are converted to a form for the calculation of IC50 and Hill Coefficient (nH).
The term IC50 denotes the concentration needed to halve the response being measured. With `COc1ccc(F)c(-c2cnc3[nH]c4c(c3n2)CCCC4)c1` [Compound 1, 2-(2-Fluoro-5-methoxyphenyl)-6,7,8,9-tetrahydro-5H-indolo[2,3-b]pyrazine], the IC50 stood at 0.2 µM. That is a sub-micromolar value.
`Fc1ccccc1-c1cnc2[nH]c3c(c2n1)CCCC3` [Compound 5, 2-(2-Fluorophenyl)-6,7,8,9-tetrahydro-5H-indolo[2,3-b]pyrazine] registered an IC50 of 0.045 µM.
Turning to `COc1ccc(-c2cnc3[nH]c4c(c3n2)CCCC4)c(F)c1` [Compound 11, 2-(2-Fluoro-4-methoxyphenyl)-6,7,8,9-tetrahydro-5H-indolo[2,3-b]pyrazine], the IC50 was 0.029 µM.
Still for that read-out and setting: for `COc1ccc(-c2cnc3[nH]c4ccccc4c3n2)c(F)c1` [Compound 12, 2-(2-Fluoro-4-methoxyphenyl)-5H-indolo[2,3-b]pyrazine] the value was 0.533 µM.

The record behind these values is US5286860A (priority 1992, dated 1994).
